From paper PMC7912740 (Pharmaceutics, 2021)
Read-outs that look alike come from different tables or passages of the source.

Tests used:
Format in all cases: biochemical
UGT1A1 [1] = target: T1, UGT1A1 (Homo sapiens, UniProt P22309); experiment: SN-38 glucuronidation in human liver microsomes, LC-MS/MS, Dixon plot; settings: SN-38 0.2–2 µM, 5 mM UDPGA, 10 mM MgCl2, alamethicin, pH 7.4, 30 min; noncompetitive
T1 construct: native enzyme in ultrapooled human liver microsomes (Corning 452161), read by SN-38 glucuronidation
T1 sequence (P22309 26-533): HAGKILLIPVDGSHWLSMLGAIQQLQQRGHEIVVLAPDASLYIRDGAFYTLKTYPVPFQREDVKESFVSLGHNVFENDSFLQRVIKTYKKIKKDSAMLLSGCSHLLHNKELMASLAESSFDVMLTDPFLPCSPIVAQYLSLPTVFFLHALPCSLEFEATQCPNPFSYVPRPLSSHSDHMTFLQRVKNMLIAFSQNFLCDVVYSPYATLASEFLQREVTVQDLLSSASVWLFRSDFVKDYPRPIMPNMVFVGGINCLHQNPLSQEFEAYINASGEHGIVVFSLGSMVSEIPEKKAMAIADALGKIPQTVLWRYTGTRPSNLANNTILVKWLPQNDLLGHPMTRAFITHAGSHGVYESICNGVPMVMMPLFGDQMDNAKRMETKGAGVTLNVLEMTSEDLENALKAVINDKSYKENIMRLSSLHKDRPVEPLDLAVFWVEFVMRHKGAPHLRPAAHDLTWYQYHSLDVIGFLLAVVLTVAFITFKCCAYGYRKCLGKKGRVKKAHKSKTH

UGT1A3 [2] = target: T2, UGT1A3 (Homo sapiens, UniProt P35503); experiment: chenodeoxycholic acid 24-acyl-glucuronidation in human liver microsomes, cocktail, LC-MS/MS; settings: 2 µM chenodeoxycholic acid (probe cocktail set A), 5 mM UDPGA, 10 mM MgCl2, alamethicin, pH 7.4, 37 °C, 60 min
T2 construct: native enzyme in ultrapooled human liver microsomes (Corning 452161), read by chenodeoxycholic acid 24-acyl-glucuronidation
T2 sequence (P35503 29-534): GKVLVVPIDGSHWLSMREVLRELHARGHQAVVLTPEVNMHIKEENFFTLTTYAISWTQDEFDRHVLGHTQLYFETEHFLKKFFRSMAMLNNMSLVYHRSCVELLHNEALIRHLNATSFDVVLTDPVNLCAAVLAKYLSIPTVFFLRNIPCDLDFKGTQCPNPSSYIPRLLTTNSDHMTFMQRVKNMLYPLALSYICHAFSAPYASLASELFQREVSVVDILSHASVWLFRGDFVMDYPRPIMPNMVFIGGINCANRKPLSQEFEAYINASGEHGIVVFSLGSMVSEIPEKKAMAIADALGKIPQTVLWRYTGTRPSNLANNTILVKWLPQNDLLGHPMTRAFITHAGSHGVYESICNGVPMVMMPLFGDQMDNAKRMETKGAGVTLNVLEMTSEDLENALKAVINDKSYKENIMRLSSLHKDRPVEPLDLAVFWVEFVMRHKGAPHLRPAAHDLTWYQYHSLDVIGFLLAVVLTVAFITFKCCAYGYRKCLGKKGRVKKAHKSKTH

UGT1A6 = target: T3, UGT1A6 (Homo sapiens, UniProt P19224); experiment: N-acetylserotonin glucuronidation in human liver microsomes, cocktail, LC-MS/MS; settings: 1 µM N-acetylserotonin (probe cocktail set B), 5 mM UDPGA, 10 mM MgCl2, alamethicin, pH 7.4, 37 °C, 60 min
T3 construct: native enzyme in ultrapooled human liver microsomes (Corning 452161), read by N-acetylserotonin glucuronidation
T3 sequence (P19224 27-532): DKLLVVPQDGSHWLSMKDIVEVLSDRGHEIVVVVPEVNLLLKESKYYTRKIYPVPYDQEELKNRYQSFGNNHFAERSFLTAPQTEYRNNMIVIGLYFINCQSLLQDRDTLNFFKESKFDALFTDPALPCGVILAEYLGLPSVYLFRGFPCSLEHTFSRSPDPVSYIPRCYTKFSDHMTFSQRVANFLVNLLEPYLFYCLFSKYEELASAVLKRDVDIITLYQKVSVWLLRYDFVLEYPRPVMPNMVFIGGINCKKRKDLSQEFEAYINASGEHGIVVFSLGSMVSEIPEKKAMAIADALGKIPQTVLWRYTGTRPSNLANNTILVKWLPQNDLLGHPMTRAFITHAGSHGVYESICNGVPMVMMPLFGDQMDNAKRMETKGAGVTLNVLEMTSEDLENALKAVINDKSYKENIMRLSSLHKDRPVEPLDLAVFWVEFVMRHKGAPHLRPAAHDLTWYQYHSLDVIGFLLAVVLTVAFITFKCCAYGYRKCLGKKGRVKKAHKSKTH

UGT2B7 = target: T4, UGT2B7 (Homo sapiens, UniProt P16662); experiment: naloxone 3-beta-D-glucuronidation in human liver microsomes, cocktail, LC-MS/MS; settings: 1 µM naloxone (probe cocktail set B), 5 mM UDPGA, 10 mM MgCl2, alamethicin, pH 7.4, 37 °C, 60 min; read-out: IC50 (μM) / Eudesmin
T4 construct: native enzyme in ultrapooled human liver microsomes (Corning 452161), read by naloxone 3-glucuronidation
T4 sequence (P16662 24-529): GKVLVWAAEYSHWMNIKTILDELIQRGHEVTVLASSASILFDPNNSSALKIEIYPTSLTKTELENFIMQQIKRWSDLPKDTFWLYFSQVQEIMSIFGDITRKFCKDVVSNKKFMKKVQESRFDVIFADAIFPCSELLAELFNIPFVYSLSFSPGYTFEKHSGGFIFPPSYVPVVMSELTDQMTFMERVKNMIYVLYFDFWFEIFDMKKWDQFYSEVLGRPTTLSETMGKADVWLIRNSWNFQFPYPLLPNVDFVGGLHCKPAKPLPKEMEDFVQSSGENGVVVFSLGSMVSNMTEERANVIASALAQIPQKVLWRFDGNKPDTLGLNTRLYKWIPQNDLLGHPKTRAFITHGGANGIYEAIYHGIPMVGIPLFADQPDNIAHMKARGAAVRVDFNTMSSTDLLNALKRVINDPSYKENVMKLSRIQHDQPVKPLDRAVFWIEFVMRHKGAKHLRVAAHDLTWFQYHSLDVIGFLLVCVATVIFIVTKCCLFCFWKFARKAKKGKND

UGT1A9 = target: T5, UGT1A9 (Homo sapiens, UniProt O60656); experiment: mycophenolic acid glucuronidation in human liver microsomes, cocktail, LC-MS/MS; settings: 0.2 µM mycophenolic acid (probe cocktail set B), 5 mM UDPGA, 10 mM MgCl2, alamethicin, pH 7.4, 37 °C, 60 min
T5 construct: native enzyme in ultrapooled human liver microsomes (Corning 452161), read by mycophenolic acid glucuronidation
T5 sequence (O60656 26-530): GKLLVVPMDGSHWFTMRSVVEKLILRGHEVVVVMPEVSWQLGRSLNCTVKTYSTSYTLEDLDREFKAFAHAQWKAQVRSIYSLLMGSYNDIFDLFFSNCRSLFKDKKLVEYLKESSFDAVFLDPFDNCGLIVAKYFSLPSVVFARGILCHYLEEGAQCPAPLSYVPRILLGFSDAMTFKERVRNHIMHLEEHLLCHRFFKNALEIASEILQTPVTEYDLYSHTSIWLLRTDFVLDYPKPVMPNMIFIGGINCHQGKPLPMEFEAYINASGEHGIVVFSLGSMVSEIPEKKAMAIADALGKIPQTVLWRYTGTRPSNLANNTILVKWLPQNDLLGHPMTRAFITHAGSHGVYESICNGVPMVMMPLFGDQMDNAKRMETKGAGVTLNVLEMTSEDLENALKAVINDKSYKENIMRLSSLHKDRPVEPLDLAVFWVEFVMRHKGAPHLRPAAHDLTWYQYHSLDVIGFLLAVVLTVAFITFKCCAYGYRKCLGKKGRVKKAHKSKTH

UGT1A1 [3] = target: T1, UGT1A1; experiment: SN-38 glucuronidation in human liver microsomes, cocktail, LC-MS/MS; settings: 0.5 µM SN-38 (probe cocktail set A), 5 mM UDPGA, 10 mM MgCl2, alamethicin, pH 7.4, 37 °C, 60 min
UGT1A4 = target: T6, UGT1A4 (Homo sapiens, UniProt P22310); experiment: trifluoperazine N-glucuronidation in human liver microsomes, cocktail, LC-MS/MS; settings: 0.5 µM trifluoperazine (probe cocktail set A), 5 mM UDPGA, 10 mM MgCl2, alamethicin, pH 7.4, 37 °C, 60 min; read-out: IC50 (μM) / Eudesmin
T6 construct: native enzyme in ultrapooled human liver microsomes (Corning 452161), read by trifluoperazine N-glucuronidation
T6 sequence (P22310 29-534): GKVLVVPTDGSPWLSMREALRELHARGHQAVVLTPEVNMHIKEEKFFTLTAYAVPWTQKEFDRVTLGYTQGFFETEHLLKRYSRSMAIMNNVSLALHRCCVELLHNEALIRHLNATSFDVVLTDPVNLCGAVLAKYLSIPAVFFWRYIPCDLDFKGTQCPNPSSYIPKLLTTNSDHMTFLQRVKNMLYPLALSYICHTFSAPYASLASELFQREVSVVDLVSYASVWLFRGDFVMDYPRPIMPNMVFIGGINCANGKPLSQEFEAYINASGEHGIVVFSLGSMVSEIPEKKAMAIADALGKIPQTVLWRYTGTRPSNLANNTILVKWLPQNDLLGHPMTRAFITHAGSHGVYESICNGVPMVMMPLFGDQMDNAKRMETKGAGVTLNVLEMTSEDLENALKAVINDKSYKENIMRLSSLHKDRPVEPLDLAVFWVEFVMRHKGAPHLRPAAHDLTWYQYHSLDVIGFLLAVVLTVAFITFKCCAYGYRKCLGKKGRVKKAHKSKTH

UGT1A3 [4] = target: T2, UGT1A3; experiment: chenodeoxycholic acid 24-acyl-glucuronidation in human liver microsomes, LC-MS/MS, Dixon plot; settings: chenodeoxycholic acid 1–10 µM, 5 mM UDPGA, 10 mM MgCl2, alamethicin, pH 7.4, 30 min; competitive
[5] = read-out: IC50 (μM) / Yangambin
[6] = read-out: IC50 (μM) / Epimagnolin A

SMILES: COc1ccc([C@H]2OC[C@H]3[C@@H]2CO[C@@H]3c2ccc(OC)c(OC)c2)cc1OC [Eudesmin]
- Ki (UGT1A1 [1]): 25.7 µM
- IC50 (UGT1A3 [2]; read-out: IC50 (μM) / Eudesmin): 26.6 µM
- IC50 (UGT1A6; read-out: IC50 (μM) / Eudesmin): 196 µM
- IC50 (UGT2B7): > 200 µM
- IC50 (UGT1A9; read-out: IC50 (μM) / Eudesmin): 173 µM
- IC50 (UGT1A1 [3]; read-out: IC50 (μM) / Eudesmin): 24.3 µM
- IC50 (UGT1A4): > 200 µM
- Ki (UGT1A3 [4]): 39.8 µM

SMILES: COc1cc([C@H]2OC[C@H]3[C@@H]2CO[C@@H]3c2cc(OC)c(OC)c(OC)c2)cc(OC)c1OC [Yangambin]
- Ki (UGT1A1 [1]): 17.1 µM
- IC50 (UGT1A3 [2]; [5]): 56.5 µM
- IC50 (UGT1A6; [6]): > 200 µM
- IC50 (UGT2B7): > 200 µM
- IC50 (UGT1A9; [6]): > 200 µM
- IC50 (UGT1A1 [3]; [5]): 29.7 µM
- IC50 (UGT1A4): > 200 µM
- Ki (UGT1A3 [4]): 66.8 µM
